Laboratory results as given in US10617664B2, “Brain derived PPARα ligands” (Rush University Medical Center, priority 2015, dated 2020).

Molecular target: T1, de novo-synthesized PPARα (Mus musculus, UniProt P23204)
T1 construct: infected with lentiviral particles of full-length PPARα and then immunoprecipitation performed; expressed in transfected cells; host or cells: Ppara-null mouse hippocampal neurons, lentiviral transduction
T1 sequence (P23204 1-468): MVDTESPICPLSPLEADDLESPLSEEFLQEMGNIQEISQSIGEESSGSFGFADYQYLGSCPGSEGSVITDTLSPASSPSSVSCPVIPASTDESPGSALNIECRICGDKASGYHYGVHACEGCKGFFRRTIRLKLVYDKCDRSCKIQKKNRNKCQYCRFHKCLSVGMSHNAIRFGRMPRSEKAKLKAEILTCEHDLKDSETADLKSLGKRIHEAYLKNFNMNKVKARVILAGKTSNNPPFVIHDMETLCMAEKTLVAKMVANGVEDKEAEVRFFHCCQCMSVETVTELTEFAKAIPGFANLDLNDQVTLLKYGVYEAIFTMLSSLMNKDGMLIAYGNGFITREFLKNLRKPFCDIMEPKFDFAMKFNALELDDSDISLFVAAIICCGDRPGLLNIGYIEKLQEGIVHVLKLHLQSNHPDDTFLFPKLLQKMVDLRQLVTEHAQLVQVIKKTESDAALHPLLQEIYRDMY
Experiment: Immunoprecipitation and GC-MS of Ppara-null hippocampal neurons infected with lenti full-length PPARα
Format: binding
Conditions: lenti-FLPara-transduced, not empty lenti-vector
Method: Identification of novel nuclear ligands of PPARα in the hippocampus PPARs are nuclear receptors that require the binding of ligands for activation of gene expression. […] In order to identify these ligands, a gas chromatography mass spectrometric (GCMS) technology was adopted. Briefly, nuclear extracts were prepared form mouse hippocampus, incubated with a GST-tagged PPARα ligand binding domain (LBD), purified with affinity chromatography, reconstituted with chloroform or acetonitrile, and GCMS analyses preformed. (FIG. 1A, FIGS. 7A-C.). […] Therefore, next cultured Ppara-null hippocampal neurons were infected with lentiviral particles of full-length PPARα and then immunoprecipitation performed followed by GCMS analyses (FIG. 1J, FIG. 7G-H). […] The efficiency of gene transduction was measured by immunoblot analyses of cell extract with PPARα antibody (FIG. 7I. In addition, these analyses successfully identified a group of biological ligands of PPARα, which are endogenously produced in the hippocampus. Some of these detected compounds are sulfur-containing unknown compounds such as thiazoles (MW 220-240), thiosemicarbazones (MW 190-200) and thiazolidine esters (MW 250-270) (Table 2). However, these compounds were excluded from this study because of their unknown biosynthetic pathway, relatively poor match-factor (<65), and commercial unavailability. […]

binding to de novo-synthesized PPARα (GC-MS)	SMILES
found to be bound	CCCCCCCCCCCCCCCC(N)=O [HEX, hexadecanamide]
found to be bound	CCCCCCCCC=CCCCCCCCC(N)=O [OCT, 9-octadecenamide]
